# Entries after “also recorded” stand apart in the source; their conditions may differ.
# Experiments:
# Format in all cases: in vivo, rat
# [1] = test system: atrial natriuretic peptide (ANP) mRNA; assay: RT-PCR of left ventricular ANP mRNA in dTGR; conditions: 9 weeks
# Procedure: As an example, four-week-old, male dTGR are allowed to develop hypertension and are placed in metabolic cages at 5.5 weeks of age. Systolic blood pressure (tail-cuff) and 24 h albumin excretion (ELISA, CellTrend, Germany) are measured as described earlier by Muller et al. Am J Pathol. 2002, 161:1679-93 and Muller et al. Am J Pathol. 2004, 164:521-32. The dTGR are matched at week 6 in terms of 24 h albumin excretion and distributed in five groups of 19 rats each. Treatments begin when the rats are aged 6 weeks. The rats receive vehicle treatment, aliskiren at 0.3 mg/kg/day and 3 mg/kg/day (by subcutaneous minipump), valsartan 1 mg/kg/day, and valsartan 10 mg/kg/day (given in the food). The low dose of valsartan is selected as a threshold treatment to reduce mortality yet only minimally effect blood pressure and organ damage. We know from earlier studies that vehicle-treated animals would not survive beyond 8 weeks of age and thus this low dose valsartan group will serve as a control group at 9 weeks. Echocardiography (M-mode tracings in the short axis and Tissue-Doppler-imaging;, n=5-6 per group at weeks 7 and 9) is performed with a 15 MHz phased-array transducer under isoflurane anesthesia (Mazak et al. Circulation. 2004; 109:2792-800). Three measurements per heart are determined, averaged, and statistically analyzed. M-mode is performed in a LV short axis and measured according to the leading edge-method. Total wall thickness is calculated as sum of septum+left ventricular posterior wall. For RT-PCR, LV mRNA is isolated with TRIZOL (Gibco Life Technology). RT-PCR for α-myosin heavy chain (α-MHC) and β-MHC, as well as for atrial natriuretic peptide (ANP) is carried out in 25 μL SybrGreen PCR Master Mix (Applied Biosystems, Germany) containing […] primer and 1 μL of the reverse transcription reaction in a 5700 Sequence Detection System (Applied Biosystems). […]
# [2] = test system: double transgenic rats expressing human renin and human angiotensinogen (dTGR); assay: Cardiac hypertrophy index at sacrifice in dTGR; conditions: for cardiac hypertrophy index score: p<0.05
# Procedure: To circumvent this problem, transgenic rats have been developed harboring either the human renin or the human angiotensinogen genes. […] Consequently, the single transgenic rats (i.e., transgenic for either human angiotensinogen or renin) are normotensive. […] As an example, four-week-old, male dTGR are allowed to develop hypertension and are placed in metabolic cages at 5.5 weeks of age. Systolic blood pressure (tail-cuff) and 24 h albumin excretion (ELISA, CellTrend, Germany) are measured as described earlier by Muller et al. Am J Pathol. 2002, 161:1679-93 and Muller et al. Am J Pathol. 2004, 164:521-32. The dTGR are matched at week 6 in terms of 24 h albumin excretion and distributed in five groups of 19 rats each. Treatments begin when the rats are aged 6 weeks. The rats receive vehicle treatment, aliskiren at 0.3 mg/kg/day and 3 mg/kg/day (by subcutaneous minipump), valsartan 1 mg/kg/day, and valsartan 10 mg/kg/day (given in the food). The low dose of valsartan is selected as a threshold treatment to reduce mortality yet only minimally effect blood pressure and organ damage. We know from earlier studies that vehicle-treated animals would not survive beyond 8 weeks of age and thus this low dose valsartan group will serve as a control group at 9 weeks. Echocardiography (M-mode tracings in the short axis and Tissue-Doppler-imaging;, n=5-6 per group at weeks 7 and 9) is performed with a 15 MHz phased-array transducer under isoflurane anesthesia (Mazak et al. Circulation. 2004; 109:2792-800). Three measurements per heart are determined, averaged, and statistically analyzed. M-mode is performed in a LV short axis and measured according to the leading edge-method. Total wall thickness is calculated as sum of septum+left ventricular posterior wall. Rats are sacrificed at age 9 weeks. The kidneys and hearts are removed and washed with ice-cold saline, blotted dry, and weighed. Tissue preparation and immunohistological techniques are performed as previously described Muller et al. Am J Pathol. 2002, 161:1679-93. Sections are incubated with primary antibodies against rat monocytes/macrophages (ED-1, Serotec, Germany), MHC II+, CD4+, and CD86+ cells (all BD Pharmingen, Germany). Scoring of infiltrated cells is performed using the program KS 300 3.0 (Zeiss, Germany). Fifteen different areas of each kidney (n=5 in all groups) are analyzed. A mean score for each animal is computed and used to derive a group mean score. Analyses are conducted without knowledge of the specific treatment.
# [3] = test system: α-myosin heavy chain (α-MHC) and β-MHC mRNA; assay: RT-PCR of left ventricular α-MHC and β-MHC mRNA in dTGR; conditions: left ventricle, 9 weeks
# Procedure: As an example, four-week-old, male dTGR are allowed to develop hypertension and are placed in metabolic cages at 5.5 weeks of age. Systolic blood pressure (tail-cuff) and 24 h albumin excretion (ELISA, CellTrend, Germany) are measured as described earlier by Muller et al. Am J Pathol. 2002, 161:1679-93 and Muller et al. Am J Pathol. 2004, 164:521-32. The dTGR are matched at week 6 in terms of 24 h albumin excretion and distributed in five groups of 19 rats each. Treatments begin when the rats are aged 6 weeks. The rats receive vehicle treatment, aliskiren at 0.3 mg/kg/day and 3 mg/kg/day (by subcutaneous minipump), valsartan 1 mg/kg/day, and valsartan 10 mg/kg/day (given in the food). The low dose of valsartan is selected as a threshold treatment to reduce mortality yet only minimally effect blood pressure and organ damage. We know from earlier studies that vehicle-treated animals would not survive beyond 8 weeks of age and thus this low dose valsartan group will serve as a control group at 9 weeks. Echocardiography (M-mode tracings in the short axis and Tissue-Doppler-imaging;, n=5-6 per group at weeks 7 and 9) is performed with a 15 MHz phased-array transducer under isoflurane anesthesia (Mazak et al. Circulation. 2004; 109:2792-800). Three measurements per heart are determined, averaged, and statistically analyzed. M-mode is performed in a LV short axis and measured according to the leading edge-method. Total wall thickness is calculated as sum of septum+left ventricular posterior wall. For RT-PCR, LV mRNA is isolated with TRIZOL (Gibco Life Technology). RT-PCR for α-myosin heavy chain (α-MHC) and β-MHC, as well as for atrial natriuretic peptide (ANP) is carried out in 25 μL SybrGreen PCR Master Mix (Applied Biosystems, Germany) containing […] primer and 1 μL of the reverse transcription reaction in a 5700 Sequence Detection System (Applied Biosystems). Thermal cycling conditions comprise an initial denaturation step at 95° C. for 10 min, followed by 95° C. for 15 s and 65° C. for 1 min for 40 cycles. mRNA expression is standardized to the hypoxanthine phosphoribosyl transferase gene as a housekeeping gene (primer sequences available on request).
# [4] = test system: double transgenic rats expressing human renin and human angiotensinogen (dTGR); assay: M-mode echocardiography of LV wall thickness / hypertrophy in dTGR; conditions: dTGR at 9 weeks
# Procedure: (§1) As an example, four-week-old, male dTGR are allowed to develop hypertension and are placed in metabolic cages at 5.5 weeks of age. Systolic blood pressure (tail-cuff) and 24 h albumin excretion (ELISA, CellTrend, Germany) are measured as described earlier by Muller et al. Am J Pathol. 2002, 161:1679-93 and Muller et al. Am J Pathol. 2004, 164:521-32. The dTGR are matched at week 6 in terms of 24 h albumin excretion and distributed in five groups of 19 rats each. Treatments begin when the rats are aged 6 weeks. The rats receive vehicle treatment, aliskiren at 0.3 mg/kg/day and 3 mg/kg/day (by subcutaneous minipump), valsartan 1 mg/kg/day, and valsartan 10 mg/kg/day (given in the food). The low dose of valsartan is selected as a threshold treatment to reduce mortality yet only minimally effect blood pressure and organ damage. We know from earlier studies that vehicle-treated animals would not survive beyond 8 weeks of age and thus this low dose valsartan group will serve as a control group at 9 weeks. Echocardiography (M-mode tracings in the short axis and Tissue-Doppler-imaging;, n=5-6 per group at weeks 7 and 9) is performed with a 15 MHz phased-array transducer under isoflurane anesthesia (Mazak et al. Circulation. 2004; 109:2792-800). Three measurements per heart are determined, averaged, and statistically analyzed. M-mode is performed in a LV short axis and measured according to the leading edge-method. Total wall thickness is calculated as sum of septum+left ventricular posterior wall.
# [5] = test system: double transgenic rats expressing human renin and human angiotensinogen (dTGR); assay: Tissue Doppler assessment of diastolic filling (Ea/Aa) in dTGR; conditions: dTGR at 9 weeks
# Procedure: as §1
# Tissue Doppler measures the velocity of the longitudinal cardiac movement at the basal septum, allowing assessment of diastolic filling Tissue Doppler measurements are performed with the sample volume in the basal septum in a four-chamber view. […] The measurements represent velocities of peak early (Ea) and late (Aa) diastolic expansion velocities. The Ea/Aa ratio is reported as an index of diastolic function.
# [6] = valsartan 1 mg/kg/d in the food
# [7] = valsartan 10 mg/kg/d in the food
# [8] = aliskiren 3 mg/kg/d, listed as Alisk
structure (smiles),measurement,setting,value
CCCCC(=O)N(Cc1ccc(-c2ccccc2-c2nnn[nH]2)cc1)[C@H](C(=O)O)C(C)C [valsartan],LV ANP mRNA expression compared to valsartan 1 mg/kg/d treated dTGR,[1]; valsartan 10 mg/kg/d,"reduces the expression of this gene, but not to a significant degree"
same,cardiac hypertrophy index score,"[2]; valsartan 10 mg/kg/d in the food from week 6, age 9 weeks",decreases
same,shift from α-MHC expression to the fetal β-MHC isoform (LV mRNA),[3]; valsartan 10 mg/kg/d,prevent the shift
same,wall thickness (septum + LV posterior wall),[4]; [6],about 3.4 mm
same,left ventricular hypertrophy (in words),[4]; valsartan 1 mg/kg/d,concentric hypertrophy; also recorded: severe left ventricular hypertrophy; also recorded: severe septal and posterior wall hypertrophy
same,wall thickness (septum + LV posterior wall),[4]; [7],about 2.7 mm
same,left ventricular hypertrophy (in words),[4]; valsartan 10 mg/kg/d,markedly ameliorated
same,left ventricular hypertrophy (in words),"[4]; valsartan 10 mg/kg/d, listed as Val",reduces septal and posterior wall hypertrophy substantially
same,Ea/Aa ratio,[5]; [6],about 0.68
same,Ea/Aa ratio,"[5]; valsartan 1 mg/kg/d in the food, listed as Val",0.66
same,diastolic dysfunction / diastolic filling (in words),[5]; valsartan 1 mg/kg/d,marked diastolic dysfunction
same,diastolic dysfunction / diastolic filling (in words),"[5]; valsartan 1 mg/kg/d, listed as Val",severe diastolic dysfunction
same,diastolic dysfunction / diastolic filling (in words),[5]; valsartan 10 mg/kg/d (high dose),still present
same,diastolic dysfunction / diastolic filling (in words),"[5]; valsartan 10 mg/kg/d (high dose), listed as Val",indicating diastolic dysfunction
same,Ea/Aa ratio,[5]; [7],about 1.0
same,Ea/Aa ratio,"[5]; valsartan 10 mg/kg/d in the food, listed as Val",1.0
"COCCCOc1cc(C[C@@H](C[C@H](N)[C@@H](O)C[C@H](C(=O)NCC(C)(C)C(N)=O)C(C)C)C(C)C)ccc1OC [aliskiren, 2(S),4(S),5(S),7(S)—N-(3-amino-2,2-dimethyl-3-oxopropyl)-2,7-di(1-methylethyl)-4-hydroxy-5-amino-8-[4-methoxy-3-(3-methoxy-propoxy)phenyl]-octanamide]",LV ANP mRNA expression compared to valsartan 1 mg/kg/d treated dTGR,[1]; aliskiren 0.3 mg/kg/d,reduced
same,LV ANP mRNA expression compared to valsartan 1 mg/kg/d treated dTGR,[1]; aliskiren 3 mg/kg/d,reduced
same,cardiac hypertrophy index score,"[2]; aliskiren 0.3 mg/kg/d subcutaneous minipump from week 6, age 9 weeks",decreases
same,cardiac hypertrophy index score,"[2]; aliskiren 3 mg/kg/d subcutaneous minipump from week 6, age 9 weeks",decreases
same,cardiac hypertrophy index compared to valsartan 10 mg/kg/d treated dTGR,"[2]; aliskiren 3 mg/kg/d, age 9 weeks",significantly lower
same,shift from α-MHC expression to the fetal β-MHC isoform (LV mRNA),[3]; aliskiren 0.3 mg/kg/d,prevent the shift
same,shift from α-MHC expression to the fetal β-MHC isoform (LV mRNA),[3]; aliskiren 3 mg/kg/d,prevent the shift
same,shift from α-MHC expression to the fetal β-MHC isoform (LV mRNA),"[3]; aliskiren 3 mg/kg/d, listed as Aliskiren",most effective
same,left ventricular hypertrophy (in words),[4]; aliskiren 0.3 mg/kg/d,markedly ameliorated
same,left ventricular hypertrophy (in words),"[4]; aliskiren 0.3 mg/kg/d, listed as Aliskiren",reduce left ventricular hypertrophy
same,wall thickness (septum + LV posterior wall),[4]; aliskiren 3 mg/kg/d subcutaneous minipump,about 2.2 mm
same,left ventricular hypertrophy (in words),[4]; aliskiren 3 mg/kg/d,markedly ameliorated; also recorded: lowest wall thickness values
same,left ventricular hypertrophy (in words),[4]; [8],reduce left ventricular hypertrophy; also recorded: normalized LV dimensions
same,Ea/Aa ratio,[5]; aliskiren 0.3 mg/kg/d (low dose) subcutaneous minipump,about 1.5
same,Ea/Aa ratio,"[5]; aliskiren 0.3 mg/kg/d (low dose) subcutaneous minipump, listed as Alisk",1.5
same,diastolic dysfunction / diastolic filling (in words),[5]; aliskiren 0.3 mg/kg/d,markedly improve
same,diastolic dysfunction / diastolic filling (in words),"[5]; aliskiren 0.3 mg/kg/d, listed as Alisk",appropriate diastolic filling
same,Ea/Aa ratio,[5]; aliskiren 3 mg/kg/d (high dose) subcutaneous minipump,about 1.4
same,Ea/Aa ratio,"[5]; aliskiren 3 mg/kg/d (high dose) subcutaneous minipump, listed as Alisk",1.5
same,diastolic dysfunction / diastolic filling (in words),[5]; aliskiren 3 mg/kg/d,markedly improve; also recorded: best diastolic filling
same,diastolic dysfunction / diastolic filling (in words),[5]; [8],appropriate diastolic filling

# Reference: US20130196977A1, “USE OF ORGANIC COMPOUNDS” (priority 2004, published 2013)
